Molecular target: Cathepsin S (Homo sapiens, UniProt P25774)
Assay: Inhibition Assay: 5 μL of a human cathepsin S enzyme (R&D1183-CY-010) was added to a 96-well plate so as to be 20 ng/well. Next, 10-fold dilution of the test compound (a 10 mM DMSO solution) was serially performed with a buffer solution for assay (a solution of 50 mM sodium methoxide, 250 mM sodium chloride and 5 mM dithiothreitol (DTT), adjusted to pH=4.5 with 1 N hydrochloric acid) six times such that the final concentration becomes 0.1 nM to 10 μM then, 20 μL of each of the solutions was added to the wells (the final DMSO concentration was 0.1%), and 25 μL of synthetic substrate VVR-AMC (3211-V manufactured by PEPTIDE […], INC.) was added thereto such that the final concentration becomes 40 μM, thereby starting a enzyme reaction. A fluorescence intensity (an excitation wavelength: 380 nm and a fluorescent wavelength: 460 nm) was measured at 37° C. for 10 minutes immediately after the start of the reaction using a fluorescence spectrophotometer (SPECTRA MAX GEMINI, manu

Chain of Cathepsin S (P25774 whole entry): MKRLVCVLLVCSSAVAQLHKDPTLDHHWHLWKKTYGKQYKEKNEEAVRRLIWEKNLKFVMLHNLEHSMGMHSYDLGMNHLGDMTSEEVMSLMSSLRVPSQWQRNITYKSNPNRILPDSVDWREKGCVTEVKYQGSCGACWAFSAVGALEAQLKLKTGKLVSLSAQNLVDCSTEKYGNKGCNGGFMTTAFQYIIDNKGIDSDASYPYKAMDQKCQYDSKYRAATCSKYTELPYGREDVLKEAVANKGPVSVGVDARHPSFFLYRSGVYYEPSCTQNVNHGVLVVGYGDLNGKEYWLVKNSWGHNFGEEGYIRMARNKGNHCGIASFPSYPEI

IC50: 2.4 nM
SMILES: CN1CCC[C@@H]1C(=O)N1CC[C@@H](OCCOc2ncc(-c3nc(C#N)nc4c3ccn4C)cc2C(F)(F)F)C1
